Data as given in BindingDB's records for doi:10.1124/jpet.105.083337 (Neurocrine Biosciences, 2005).

Target: Melanocortin receptor 4 (Homo sapiens, UniProt P32245)
Sequence (P32245 whole entry): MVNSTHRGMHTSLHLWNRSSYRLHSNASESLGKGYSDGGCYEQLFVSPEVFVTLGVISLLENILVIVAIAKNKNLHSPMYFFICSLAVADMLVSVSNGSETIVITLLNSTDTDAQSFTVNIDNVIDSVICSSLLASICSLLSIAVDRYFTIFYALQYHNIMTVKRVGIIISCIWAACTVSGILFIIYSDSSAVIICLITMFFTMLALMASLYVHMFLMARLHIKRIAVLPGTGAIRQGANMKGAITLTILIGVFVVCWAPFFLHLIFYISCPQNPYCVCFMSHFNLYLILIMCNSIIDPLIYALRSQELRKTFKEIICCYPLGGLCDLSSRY

Ki [nM]	SMILES
74.1	CN(Cc1cccnc1)Cc1ccccc1N1CCN(C(=O)[C@@H](Cc2ccc(Cl)cc2)NC(=O)[C@H]2Cc3ccccc3CN2)CC1
20	C[C@@H]1CN(Cc2ccccc2N2CCN(C(=O)[C@@H](Cc3ccc(Cl)cc3)NC(=O)[C@H]3Cc4ccccc4CN3)CC2)[C@@H](C)CN1 [NBI-56297]
6.31	CN(Cc1ccccc1N1CCN(C(=O)[C@@H](Cc2ccc(Cl)cc2)NC(=O)[C@H]2Cc3ccccc3CN2)CC1)C1CCCNC1 (some centres undefined) [NBI-58702]
13.5	CC(Nc1cc[nH]c1)c1ccccc1N1CCN(C(=O)[C@@H](Cc2ccc(Cl)cc2)NC(=O)[C@H]2Cc3ccccc3CN2)CC1 (some centres undefined) [NBI-58704]
